These results are taken from ChEMBL document CHEMBL3627653, “Synthesis and biological evaluation of spiro[cyclopropane-1,3'-indolin]-2'-ones as potential anticancer agents” (Bioorg Med Chem Lett, 2015).

What all share (type): functional, cell-based
Test [1] relates to HeLa. Put plainly: Anticancer activity against human HeLa cells assessed as reduction in cell viability incubated for 48 hrs by MTT assay. For orientation: Tetrazolium dyes change colour on reduction, which living cells bring about.
The subject of test [2] is HT-29. Put plainly: Anticancer activity against human HT-29 cells assessed as reduction in cell viability incubated for 48 hrs by MTT assay. The note with it: HT-29, 48 h.
For test [3], the system named is MCF7. Put plainly: Anticancer activity against human MCF7 cells assessed as reduction in cell viability incubated for 48 hrs by MTT assay. The note with it: MCF7, 48 h.
The test system of test [4] is A549. Put plainly: Anticancer activity against human A549 cells assessed as reduction in cell viability incubated for 48 hrs by MTT assay. The note with it: A549, 48 h.
Test [5] has as its system DU-145. The test can be described thus: Anticancer activity against human DU145 cells assessed as reduction in cell viability incubated for 48 hrs by MTT assay. The note with it: DU-145, 48 h.

Some results are limits rather than exact numbers.

As usually defined, the IC50 is the concentration at which inhibition is half-maximal. Turning to `CCOC(=O)[C@H]1[C@H](C(=O)c2ccc(Cl)cc2)C12C(=O)Nc1ccc(Cl)cc12` (relative stereo), the concentration for half-maximal inhibition (IC50) in test [1] is > 100 µM; in test [2], 79.4 µM; in test [3], 30.8 µM; in test [4], 32.4 µM; in test [5] it was > 100 µM.
For the compound `CCOC(=O)[C@H]1[C@H](C(=O)c2ccc(OC)c(OC)c2)C12C(=O)Nc1ccc(Cl)cc12` (relative stereo), the half-inhibitory concentration (IC50) in test [1] worked out at 13 µM; in test [2] it was 9.92 µM; in test [3] it was 20.3 µM; in test [4], 7.07 µM; in test [5], 8.31 µM.
Turning to `CCOC(=O)[C@H]1[C@H](C(=O)c2ccc3ccccc3c2)C12C(=O)Nc1ccccc12` (relative stereo), the IC50 in test [1] came to 20 µM; in test [2], 18 µM; in test [3] it was 31.1 µM; in test [4], 12.6 µM; in test [5], 17.2 µM.
Taken in the same sequence, the figures for `CCOC(=O)[C@H]1[C@H](C(=O)c2ccc(Cl)cc2)C12C(=O)N(C)c1ccccc12` (relative stereo) were 12.6 µM, 8.51 µM, 12.6 µM, 6.56 µM and 6.3 µM.
On to `CCOC(=O)[C@H]1[C@H](C(=O)c2ccc([N+](=O)[O-])cc2)C12C(=O)Nc1ccc(Cl)cc12` (relative stereo), for which the concentration for half-maximal inhibition (IC50) was 10.7 µM in test [1]; 2.95 µM in test [2]; 4.26 µM in test [3]; 3.59 µM in test [4]; 2.88 µM in test [5].
For `CCOC(=O)[C@H]1[C@H](C(=O)c2ccc([N+](=O)[O-])cc2)C12C(=O)N(C)c1ccccc12` (relative stereo), in that order: 51.2 µM, 19.7 µM, 37.1 µM, 26.1 µM and 18.9 µM.
Regarding `CCOC(=O)[C@H]1[C@H](C(=O)c2ccccc2)C12C(=O)N(C)c1ccccc12` (relative stereo), the 50% inhibitory concentration (IC50) in test [1] came out at 19.5 µM; in test [2], 16.1 µM; in test [3], 13.2 µM; in test [4], 7.24 µM; in test [5] it was 7.94 µM.
Regarding `CCOC(=O)[C@H]1[C@H](C(=O)c2ccc(C)cc2)C12C(=O)N(C)c1ccccc12` (relative stereo), the IC50 was determined as 33.5 µM in test [1]; 23.9 µM in test [2]; 24.7 µM in test [3]; 5.49 µM in test [4]; 7.24 µM in test [5].
For `CCOC(=O)[C@H]1C(C(=O)c2ccc(OC)cc2)C12C(=O)Nc1ccc(Cl)cc12` (stereo partly drawn), the half-maximal inhibitory concentration (IC50) was determined as 9.12 µM in test [1]; 9.54 µM in test [2]; 9.33 µM in test [3]; 6.42 µM in test [4]; 5.01 µM in test [5].
Turning to `CCOC(=O)[C@H]1[C@H](C(=O)c2ccc3ccccc3c2)C12C(=O)Nc1ccc(Cl)cc12` (relative stereo), the IC50 in test [1] came out at 7.76 µM; in test [2], 5.01 µM; in test [3] it was 4.89 µM; in test [4], 6.16 µM; in test [5], 5.24 µM.
Take `CCOC(=O)[C@@H]1[C@@H](C(=O)c2ccccc2)C12C(=O)Nc1ccccc12` (stereo partly drawn): the IC50 was found to be 7.24 µM in test [1]; 2.75 µM in test [2]; 2.95 µM in test [3]; 4.16 µM in test [4]; 1.69 µM in test [5].
Take `COc1cccc2c1C(=O)c1c(O)c3c(c(O)c1C2=O)C[C@@](O)(C(=O)CO)C[C@@H]3O[C@H]1C[C@H](N)[C@H](O)[C@H](C)O1` [DOXORUBICIN]: the half-inhibitory concentration (IC50) came out at 1.51 µM in test [1], 0.93 µM in test [2] and 1.94 µM in test [5].
In the case of `CCOC(=O)[C@H]1[C@H](C(O)c2ccc([N+](=O)[O-])cc2)C12C(=O)Nc1ccc(Br)cc12` (stereo partly drawn), the half-inhibitory concentration (IC50) in test [1] is 28.8 µM; in test [2], 23.4 µM; in test [3], > 100 µM; in test [4] it was 21.1 µM; in test [5] it was 27.8 µM.
Regarding `CCOC(=O)[C@H]1[C@H](C(=O)c2ccc3ccccc3c2)C12C(=O)N(C)c1ccccc12` (relative stereo), the half-inhibitory concentration (IC50) is > 100 µM in test [1]; > 100 µM in test [2]; 75.9 µM in test [3]; 98.5 µM in test [4]; > 100 µM in test [5].
With `CCOC(=O)[C@H]1[C@H](C(=O)c2ccc(OC)cc2)C12C(=O)N(C)c1ccccc12` (relative stereo), the IC50 in test [1] was found to be 15.4 µM; in test [2], 13.2 µM; in test [3] it was 18.2 µM; in test [4], 5.88 µM; in test [5] it was 15 µM.
Taken in the same sequence, the figures for `CCOC(=O)[C@H]1[C@H](C(=O)OCC)C12C(=O)N(C)c1ccccc12` (relative stereo) were 32.2 µM, 26.9 µM, 32.1 µM, 74.2 µM and 39.8 µM.
For `CCOC(=O)[C@H]1[C@H](C(=O)c2ccc3ccccc3c2)C12C(=O)Nc1ccc(Br)cc12` (relative stereo), in that order: > 100 µM, 79.4 µM, 29.3 µM, 25 µM and 36.9 µM.
Turning to `CCOC(=O)[C@H]1[C@H](C(=O)OCC)C12C(=O)Nc1ccc(F)cc12` (relative stereo), the IC50 was found to be 84.2 µM in test [1]; 36.6 µM in test [2]; 36.8 µM in test [3]; 78.2 µM in test [4]; 24.3 µM in test [5].
For `CCOC(=O)[C@H]1[C@H](C(=O)c2cc(OC)c(OC)c(OC)c2)C12C(=O)Nc1ccc(Cl)cc12` (relative stereo), in that order: 39.8 µM, 25.1 µM, 37.5 µM, 24.1 µM and 21.9 µM.
Taken in the same sequence, the figures for `CCOC(=O)[C@H]1[C@H](C(O)c2ccc(OC)cc2)C12C(=O)Nc1ccccc12` (relative stereo) were 5.78 µM, 2.29 µM, 4.78 µM, 27.5 µM and 1.94 µM.
For the compound `CCOC(=O)[C@H]1[C@H](C(=O)c2cc(OC)c(OC)c(OC)c2)C12C(=O)Nc1ccccc12` (relative stereo), the IC50 in test [1] amounted to 32.8 µM; in test [2], 8.51 µM; in test [3], 50.1 µM; in test [4], 17.7 µM; in test [5], 15.8 µM.
Taken in the same sequence, the figures for `CCOC(=O)[C@H]1[C@H](C(=O)c2ccc(OC)cc2)C12C(=O)Nc1ccccc12` (relative stereo) were 26.3 µM, 14.7 µM, 19.1 µM, 9.77 µM and 17.4 µM.
For `CCOC(=O)[C@H]1[C@H](C(=O)c2ccc(Cl)cc2)C12C(=O)Nc1ccc(Br)cc12` (relative stereo), in that order: 62.1 µM, 8.47 µM, 12.2 µM, 15.8 µM and 8.12 µM.
Taken in the same sequence, the figures for `CCOC(=O)[C@H]1[C@H](C(=O)c2ccc(OC)c([N+](=O)[O-])c2)C12C(=O)Nc1ccccc12` (relative stereo) were 7.76 µM, 7.24 µM, 9.77 µM, 4.79 µM and 6.36 µM.
Turning to `CCOC(=O)[C@H]1[C@H](C(=O)c2ccc([N+](=O)[O-])cc2)C12C(=O)Nc1ccccc12` (relative stereo), the IC50 was 41.3 µM in test [1]; 25.1 µM in test [2]; 22.1 µM in test [3]; 19.1 µM in test [4]; 19.8 µM in test [5].
Taken in the same sequence, the figures for `CCOC(=O)[C@H]1[C@H](C(=O)OCC)C12C(=O)Nc1ccccc12` (relative stereo) were 61.3 µM, 18.9 µM, 57.5 µM, > 100 µM and 18.6 µM.
Taken in the same sequence, the figures for `CCOC(=O)[C@H]1[C@H](C(=O)c2ccc(Cl)cc2)C12C(=O)Nc1ccccc12` (relative stereo) were 19.9 µM, 23.7 µM, 18.6 µM, 12.9 µM and 15.8 µM.
For `CCOC(=O)[C@H]1[C@H](C(=O)c2ccc([N+](=O)[O-])cc2)C12C(=O)Nc1ccc(Br)cc12` (relative stereo), the IC50 in test [1] is 68.9 µM; in test [2], 42.6 µM; in test [3] it was > 100 µM; in test [4] it was 30.5 µM; in test [5], 31.6 µM.
`CCOC(=O)[C@H]1[C@H](C(=O)c2ccc(C)cc2)C12C(=O)Nc1ccc(Cl)cc12` (relative stereo): the IC50 is > 100 µM in test [1]; > 100 µM in test [2]; 90.2 µM in test [3]; > 100 µM in test [4]; > 100 µM in test [5].
As to `CCOC(=O)[C@H]1[C@H](C(=O)c2ccc(OC)cc2)C12C(=O)Nc1ccc(Br)cc12` (relative stereo), the IC50 came to 45.1 µM in test [1]; 33.7 µM in test [2]; 41.6 µM in test [3]; 79.4 µM in test [4]; 31.7 µM in test [5].
Take `CCOC(=O)[C@H]1[C@H](C(=O)OCC)C12C(=O)Nc1ccc([N+](=O)[O-])cc12` (relative stereo): the IC50 in test [1] was 32.9 µM; in test [2], 50.1 µM; in test [3] it was 71.6 µM; in test [4], > 100 µM; in test [5], 38 µM.
For `CCOC(=O)[C@H]1[C@H](C(=O)OCC)C12C(=O)Nc1ccc(Br)cc12` (relative stereo), in that order: 62.8 µM, 30.9 µM, > 100 µM, > 100 µM and 50.7 µM.
